This is an account of results in ChEMBL document CHEMBL4706711, “Alkaloids of Delphinium grandiflorum and their implication to HO-induced cardiomyocytes injury” (Bioorg Med Chem, 2021).

The subject of series [1] is H9c2. The experiment in a line: Cytotoxicity against rat H9c2 cells assessed as reduction in cell viability at 50 uM measured after 24 hrs by CCK8 assay. Type of series: cell-based. Particulars: h9c2, 24 h. On the technique in general: Formazan colour is commonly taken as a measure of viable cells.
Series [2] concerns H9c2. Put plainly: Cardioprotective activity against rat H9c2 cells assessed as reduction in H2O2-induced cell death at 50 uM preincubated for 24 hrs followed by H2O2 stimulation and measured after 1 hr by CCK8 assay. To be noted: time 25.0 hrs. It counts as functional, cell-based.
Series [3] concerns H9c2. Put plainly: Cardioprotective activity against rat H9c2 cells assessed as reduction in H2O2-induced cell death preincubated for 24 hrs followed by H2O2 stimulation and measured after 1 hr by CCK8 assay. It counts as functional, cell-based.
The test system of series [4] is H9c2. The experiment in a line: Cardioprotective activity in H2O2-induced mitochondrial membrane potential loss in rat H9c2 cells assessed as increase in MMP level at 2 uM preincubated for 24 hrs followed by H2O2 stimulation and measured after 1 hr by JC1 staining based flow cytometry. To be noted: time 25.0 hrs. It counts as functional, cell-based.
The subject of series [5] is H9c2. Put plainly: Activation of AMPKalpha in H2O2-induced rat H9c2 cells assessed as reduction in mTOR expression at 2 uM preincubated for 24 hrs followed by H2O2 stimulation and measured after 1 hr by Western blot analysis. Particulars: filed as activator, time 25.0 hrs. For orientation: Immunoblotting shows a protein as a band on a membrane.
Series [6] has as its system H9c2. Put plainly: Activation of AMPKalpha in H2O2-induced rat H9c2 cells assessed as increase in AMPKalpha phosphorylation at […] residues at 2 uM preincubated for 24 hrs followed by H2O2 stimulation and measured after 1 hr by Western blot analysis. To be noted: filed as activator, time 25.0 hrs.
Series [7] relates to H9c2. Put plainly: Cardioprotective activity against rat H9c2 cells assessed as reduction in H2O2-induced ROS generation at 2 uM preincubated for 24 hrs followed by H2O2 stimulation and measured after 1 hr by DCFH-DA staining based flow cytometry. It counts as functional, cell-based. To be noted: time 25.0 hrs.
In series [8] the test system is H9c2. Put plainly: Cardioprotective activity against rat H9c2 cells assessed as reduction in H2O2-induced apoptosis by measuring up regulation of Bcl2 expression at 2 uM preincubated for 24 hrs followed by H2O2 stimulation and measured after 1 hr by Western blot analysis. Particulars: time 25.0 hrs. Type of series: functional, cell-based.
The test system of series [9] is H9c2. Put plainly: Activation of AMPKalpha in H2O2-induced rat H9c2 cells assessed as reduction in AKT expression at 2 uM preincubated for 24 hrs followed by H2O2 stimulation and measured after 1 hr by Western blot analysis. To be noted: filed as activator, time 25.0 hrs.
For series [10], the system named is H9c2. The experiment in a line: Cardioprotective activity against rat H9c2 cells assessed as reduction in H2O2-induced apoptosis by measuring down regulation of Bax expression at 2 uM preincubated for 24 hrs followed by H2O2 stimulation and measured after 1 hr by Western blot analysis. Particulars: time 25.0 hrs. It counts as functional, cell-based.

Molecules are shown by their SMILES. Active and inactive are the calls of the source. The rule behind the calls is not given here.

As for `CCN1C2OC(=O)[C@]3(CO)CC[C@H](OC)C24[C@@H]2C[C@@H]5[C@H](OC)[C@@H]2[C@](O)(C[C@@H]5OC)[C@]1(O)[C@@H](OC)[C@@H]43`, the Activity result in the series on H9c2 [1] is given as “Non-Toxic”. Also, in the series on H9c2 [2], the result was Active.

Usually IC50 stands for the concentration at which inhibition is half-maximal. As to `COC(=O)c1ccccc1NC(=O)CC(C)C(=O)O` (stereo not drawn), in the series on H9c2 [3], the IC50 amounted to 1900 nM. Moreover, in the series on H9c2 [1], the Activity result was “Non-Toxic”.

In the case of `CCN1C(=O)[C@]2(CO)CC[C@H](OC)[C@]34C1O[C@@](O)([C@@H](OC)[C@H]23)[C@@]1(O)C[C@H](OC)[C@@H]2C[C@@H]4[C@@H]1[C@H]2OC`, the Activity result in the series on H9c2 [1] was “Non-Toxic”. The outcome with H9c2 [2] was Active.

As for `CO[C@H]1[C@@H]2C[C@@H]3[C@H]1[C@](O)(C[C@@H]2OC)[C@@]1(O)C2[N+]([O-])=C[C@]4(CO)CC[C@H](OC)[C@@]23[C@@H]4[C@@H]1OC`, the result in the series on H9c2 [2] was inactive.

For the compound `CCN1C(=O)[C@]2(CO)CC[C@H](OC)[C@]34C1[C@](O)([C@@H](OC)[C@H]23)[C@@]1(O)C[C@H](OC)[C@H]2C[C@@H]4[C@@H]1[C@H]2OC`, the IC50 with H9c2 [3] was found to be 1880 nM. Besides, the outcome with H9c2 [4], in the series with H9c2 [5], in the series on H9c2 [6], in the series on H9c2 [7], in the series with H9c2 [8] and in the series with H9c2 [9] was Active. Besides, the result in the series on H9c2 [2] and in the series with H9c2 [10] was Active. In the series with H9c2 [1], the Activity entry is “Non-Toxic”.

For `CO[C@H]1[C@@H]2C[C@@H]3[C@H]1[C@](O)(C[C@@H]2OC)C(=O)[C@@H](OC)[C@@H]1[C@@]2(COC(C)=O)CC[C@H](OC)[C@@]31C=[N+]([O-])C2`, the outcome in the series with H9c2 [2] was inactive.
